Measured values as given in article PMC9130233, “An inhibitor of RORγ for chronic pulmonary obstructive disease treatment” (Scientific Reports, 2022).
Read-outs that look alike come from different tables or passages of the source.

Key:
[1] = system: IL-17 release in mouse peritoneal neutrophils; test: IL-17 release, mouse peritoneal neutrophils, LPS; format: cell-based; details: Neutrophil, n = 2, read-out: potency, IL-17 release inhibition
Procedure: The peritoneal neutrophils or macrophages were isolated from C57BL/6 male mice or BALB/c female mice (6–8 wks; 18–22 g) injected with 3% or 4% thioglycollate broth. After 4 h or 4 days, RPMI medium was injected into the peritoneal cavity of mouse and peritoneal lavage was collected. The lavage was pooled and spun at 800 rpm for 10 min. The pellet was re-suspended in 1X Gey’s solution for 5 min followed by PBS wash. In case of neutrophils, the isolated cells were seeded in 48 well plate for 1.5 h. After 1.5 h, the supernatant containing peritoneal neutrophils were collected and centrifuged at 2000 rpm for 10 min and the pellet were re-suspended in 2% RPMI. In case of isolated peritoneal macrophages, the cells were seeded in 48 well plate for 3–4 h followed by PBS wash. Both the neutrophils and macrophages were treated with PCCR-1 in 2% RPMI for 1 h followed by stimulation with 10 µg/ml or 5 µg/ml of LPS for 18 h or 24 h. The supernatant collected for IL-17 estimation by ELISA.

NK3 = system: T1, NK3; test: Cerep panel, NK3
T1 construct: Eurofins Cerep
Source text: (§1) Based on the homology of the ligand binding domains, 3 different isoforms of ROR (hRORα, hRORβ and hRORγ) are reported. Small variations in the LBD regions possibly lead to differences in competitive binding between the nuclear receptors of the ROR isoforms (Fig. 1b). Similar to the assessment of RORγ binding assay, TR-FRET binding assays were also used to assess the affinity of PCCR-1 for other ROR isoforms. […] This was reconfirmed in cellular functional assays for the selected isoforms and nuclear receptors using Gal4 DBD with luciferase reporter system from Indigo (PA, USA). […] In addition, both cellular agonist and antagonist effects as well as for enzyme activity were evaluated with a known reference compound for each target, using a radiolabeled method (Eurofins Cerep, France, Table 1).

RORα = RORα (Homo sapiens, UniProt P35398); test: Transactivation assay, Gal4 DBD luciferase reporter (Indigo); format: cell-based
Chain of RORα (P35398 272-523 limits assumed): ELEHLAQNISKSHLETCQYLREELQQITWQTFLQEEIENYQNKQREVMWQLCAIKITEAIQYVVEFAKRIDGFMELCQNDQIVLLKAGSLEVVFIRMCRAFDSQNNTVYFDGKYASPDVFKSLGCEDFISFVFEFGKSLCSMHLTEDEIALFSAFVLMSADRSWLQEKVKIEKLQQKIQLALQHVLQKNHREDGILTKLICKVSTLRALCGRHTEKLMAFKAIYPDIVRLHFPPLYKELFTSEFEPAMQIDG
Source text: as §1

[2] = system: RORγt and IL-17A mRNA in human PBMC; test: RT-PCR mRNA expression in TCR stimulated human PBMC; format: cell-based; details: PCCR-1 treated PBMCs, healthy subjects
Procedure: For RT-PCR from human PBMC, 5X 10^6 PBMCs were seeded in 6well pre-coated human anti-CD3 mAb (10 µg/mL) plate, post 30 min of compound treatment cells were stimulated with human anti-CD28 mAb (2 µg/mL). After 48 h cells were pelleted, washed with PBS and total RNA was extracted using TRI reagent. 3 µg of DNase treated RNA was reverse transcribed using iScript select cDNA synthesis kit (Biorad Hercules, CA, USA) to produce single-stranded cDNA. RT-PCR was performed with an real-time thermal cycler Eppendorf Mastercycler Ep (Eppendorf AG, Hamburg, Germany) using iTaq SYBR Green Supermix with ROX kit (Biorad Hercules, CA, USA) with human IL-17A specific primers: 5’- […]-3’(sense primer) and 5'-[…]-3' (antisense primer) and human RORγt specific primers: 5’-[…]-3’ (sense primer) and 5’-[…]-3’ (antisense primer). RT-PCR reaction was carried out for 40 cycles at 95 °C for 15 s, 60 °C for 15 s and 60 °C for 40 s. Data was interpreted using 2(-∆CT) Livak method of analysis.

[3] = system: IL-17A release in human PBMC; test: IL-17A release, human PBMC, anti-CD3 + anti-CD28; format: cell-based
Source text: Inhibition of RORγ by PCCR-1 was also estimated in a functional assay by measuring the inhibition of Th17 dependent cytokine IL-17A release in human peripheral blood mononuclear cells (PBMCs), mouse splenocytes and canine PBMC stimulated with their respective anti-CD3 and anti-CD28 antibodies.
Human whole blood from healthy subjects were procured from Clinical Research Unit, Sanpada. Clinical Research Center Glenmark (Plot No. D, 508, Turbhe, TTC Industrial Area, MIDC, Sanpada, Navi Mumbai, Maharashtra 400705, India). PBMCs were isolated using heparinized blood with Ficoll Histopaque. Briefly, the cells were seeded in 96-well plate pre-coated with human anti-CD3 mAb (10 µg/mL), post 30 min of compound treatment cells were stimulated with human anti-CD28 mAb (2 µg/mL). After 72 h of culture, the supernatant was collected for Th1/Th2 cytokines; IFN-γ, IL-2, IL-4 and IL-10 and measured by ELISA. For Th17 polarization assay, the following cytokine cocktail was used: IL-1β (10 ng/ml), IL-23(10 ng/ml), IL-6 (50 ng/ml), TGF-β1 (3 ng/ml), IL-2 (20U/ml) and supernatants were used for measuring IL-17 and IL-22 by ELISA.

CCn1c(C(C)(C)Oc2ccc(F)cc2F)nc2cc(NC(=O)Cc3ccc(S(=O)(=O)CC)cc3)ccc21 [PCCR-1]
IC50 [1]: 245 nM
% inhibition at 10 µM NK3 (NK3): 56%
effect in transactivation assays for RORα inhibition (RORα): no effect
IL-17A mRNA expression [2]: significantly inhibited
RORγt mRNA expression [2]: downregulation
IC50 ([3]; TCR activating conditions, comparative Th1/Th2/Th17 study (Fig. 3A), read-out: hIL-17 (IL-17A) IC50): 94.3 nM
IC50 ([3]; anti-CD3 + anti-CD28, n = 24 (Fig. 1D), read-out: Cellular activity: Human IC50, IL-17A release): 117 nM
